Data on 42 molecules can be found in ChEMBL document CHEMBL5042500 (J Med Chem, 2022).

Experiment [1] deals with T1, Serine/threonine-protein kinase Sgk1 (Homo sapiens, UniProt O00141).
T1 sequence (O00141 whole entry): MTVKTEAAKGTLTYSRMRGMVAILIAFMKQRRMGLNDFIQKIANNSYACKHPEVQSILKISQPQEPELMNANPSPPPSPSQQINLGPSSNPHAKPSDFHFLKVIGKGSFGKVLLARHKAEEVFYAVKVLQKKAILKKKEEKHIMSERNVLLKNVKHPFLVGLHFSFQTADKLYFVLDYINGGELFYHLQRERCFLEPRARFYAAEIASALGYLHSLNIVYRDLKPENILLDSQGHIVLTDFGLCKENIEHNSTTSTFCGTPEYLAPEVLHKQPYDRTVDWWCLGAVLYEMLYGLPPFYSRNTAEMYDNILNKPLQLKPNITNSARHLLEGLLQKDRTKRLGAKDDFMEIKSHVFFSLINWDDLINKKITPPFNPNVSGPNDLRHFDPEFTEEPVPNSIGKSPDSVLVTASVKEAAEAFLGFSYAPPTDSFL
As to the kind of experiment: Inhibition of recombinant human SGK1 expressed in baculovirus expression system using 5-carboxyfluorescein -RPRAATF-NH2 as substrate preincubated for 30 mins followed by substrate addition in presence of 10 uM ATP and measured after 60 mins by microfluidics assay.

Experiment [2] deals with T1, Serine/threonine-protein kinase Sgk1. Briefly: Inhibition of recombinant human SGK1 expressed in baculovirus expression system using 5-carboxyfluorescein -RPRAATF-NH2 as substrate preincubated for 30 mins followed by substrate addition in presence of 500 uM ATP and measured after 60 mins by microfluidics assay.

A word on the IC50: it is the concentration at which inhibition is half-maximal. As for `Cc1n[nH]c2nc(-c3ccc(NS(=O)(=O)c4cc(Cl)ccc4F)cc3)nc(OCCCN)c12`, the concentration for half-maximal inhibition (IC50) in experiment [1] and in experiment [2] was less than 2 nM throughout.
For the molecule `CC(C)NC(=O)c1cc(-c2ccc(NS(=O)(=O)c3cccc(Cl)c3Cl)cc2)nc2[nH]ncc12`, the half-maximal inhibitory concentration (IC50) in experiment [1] came out at 68 nM; in experiment [2], 17600 nM.
Consider `CN1CCC(NC(=O)c2cc(-c3ccc(NS(=O)(=O)c4cccc(Cl)c4Cl)cc3)nc3[nH]ncc23)C1` (racemic), for which the IC50 in experiment [1] is less than 1 nM; in experiment [2], 21 nM.
On the same counts, the results for `Nc1nc(CNC(=O)c2cc(-c3ccc(NS(=O)(=O)c4cccc(Cl)c4Cl)cc3)nc3[nH]ncc23)cs1` are 19 nM and 2470 nM.
The matching figures for `COCCN1CCC(Oc2nc(-c3ccc(NS(=O)(=O)c4cc(Cl)ccc4F)cc3)nc3[nH]nc(C)c23)CC1`: 3 nM and 5 nM.
On the same counts, the results for `O=C(NCc1nncs1)c1cc(-c2ccc(NS(=O)(=O)c3cccc(Cl)c3Cl)cc2)nc2[nH]ncc12` are 109 nM and 1270 nM.
`Cc1n[nH]c2nc(-c3ccc(NS(=O)(=O)c4cc(Cl)ccc4F)cc3)nc(Oc3ccc(N)nc3)c12`: the IC50 in experiment [1] was found to be 4 nM; in experiment [2], 11 nM.
On to `O=C(N[C@@H]1CCNC1)c1cc(-c2ccc(NS(=O)(=O)c3cccc(Cl)c3Cl)cc2)nc2[nH]ncc12`, for which the IC50 in experiment [1] and in experiment [2] was less than 1 nM each time.
In the case of `Cc1n[nH]c2nc(-c3ccc(NS(=O)(=O)c4cc(Cl)ccc4F)cc3)nc(OCC3CNCCO3)c12` (stereo unspecified), the IC50 in experiment [1] and in experiment [2] was 2 nM in each case.
Take `O=C(NCc1ncc[nH]1)c1cc(-c2ccc(NS(=O)(=O)c3cccc(Cl)c3Cl)cc2)nc2[nH]ncc12`: the IC50 was less than 1 nM in experiment [1] and 128 nM in experiment [2].
The matching figures for `CN(CCO)C(=O)c1cc(-c2ccc(NS(=O)(=O)c3cccc(Cl)c3Cl)cc2)nc2[nH]ncc12`: less than 1 nM and 24 nM.
On to `O=C(NC1CCN(CC2CC2)C1)c1cc(-c2ccc(NS(=O)(=O)c3cccc(Cl)c3Cl)cc2)nc2[nH]ncc12` (racemic), for which the IC50 in experiment [1] amounted to 1 nM; in experiment [2] it was 35 nM.
On the same counts, the results for `Cc1n[nH]c2nc(-c3ccc(NS(=O)(=O)c4cc(Cl)ccc4F)cc3)nc(OC3CCN(CC(F)(F)F)CC3)c12` are 55 nM and 265 nM.
For the molecule `NCCNC(=O)c1cc(-c2ccc(NS(=O)(=O)c3cccc(Cl)c3Cl)cc2)nc2[nH]ncc12`, the IC50 in experiment [1] and in experiment [2] was less than 1 nM in each case.
Consider `Cc1n[nH]c2nc(-c3ccc(NS(=O)(=O)c4cc(Cl)ccc4F)cc3)nc(OCCC(=O)N(C)C)c12`, for which the half-inhibitory concentration (IC50) stood at 15 nM in experiment [1] and 438 nM in experiment [2].
The matching figures for `Cc1n[nH]c2nc(-c3ccc(NS(=O)(=O)c4cc(Cl)ccc4F)cc3)nc(OC3CC(C)(C)N(C)C(C)(C)C3)c12`: 2 nM and 3 nM.
For the molecule `Cc1n[nH]c2nc(-c3ccc(NS(=O)(=O)c4cc(Cl)ccc4F)cc3)nc(OC3CCNCC3F)c12` (stereo unspecified), the IC50 in experiment [1] and in experiment [2] was 1 nM throughout.
With `CCN1CCCC(Oc2nc(-c3ccc(NS(=O)(=O)c4cc(Cl)ccc4F)cc3)nc3[nH]nc(C)c23)C1` (stereo unspecified), the half-inhibitory concentration (IC50) in experiment [1] amounted to 6 nM.
As to `CN(C)CCCNC(=O)c1cc(-c2ccc(NS(=O)(=O)c3cccc(Cl)c3Cl)cc2)nc2[nH]ncc12`, in experiment [2], the IC50 turned out to be 633 nM.
For `Cc1n[nH]c2nc(-c3ccc(NS(=O)(=O)c4cc(Cl)ccc4F)cc3)nc(OCC3(CN)COC3)c12`, the IC50 in experiment [1] and in experiment [2] was 1 nM throughout.
In the case of `Cc1n[nH]c2nc(-c3ccc(NS(=O)(=O)c4cc(Cl)ccc4F)cc3)nc(Oc3ccc(O)nc3)c12`, the IC50 was found to be 2 nM in experiment [1] and 4 nM in experiment [2].
On the same counts, the results for `Cc1n[nH]c2nc(-c3ccc(NS(=O)(=O)c4cc(Cl)ccc4F)cc3)nc(OC3CC(C)(C)NC(C)(C)C3)c12` are 3 nM and 4 nM.
The matching figures for `O=C(NCc1nn[nH]n1)c1cc(-c2ccc(NS(=O)(=O)c3cccc(Cl)c3Cl)cc2)nc2[nH]ncc12`: 4 nM and 813 nM.
As to `O=C(NC1CCN(CCO)C1)c1cc(-c2ccc(NS(=O)(=O)c3cccc(Cl)c3Cl)cc2)nc2[nH]ncc12` (racemic), the IC50 worked out at 1 nM in experiment [1] and 12 nM in experiment [2].
Regarding `Cc1n[nH]c2nc(-c3ccc(NS(=O)(=O)c4cc(Cl)ccc4F)cc3)nc(OCC(CO)CO)c12`, the IC50 in experiment [1] was 1 nM; in experiment [2], 2 nM.
The matching figures for `O=C(NCCc1cc[nH]n1)c1cc(-c2ccc(NS(=O)(=O)c3cccc(Cl)c3Cl)cc2)nc2[nH]ncc12`: 10 nM and 246 nM.
As to `CN1CCC(CNC(=O)c2cc(-c3ccc(NS(=O)(=O)c4cccc(Cl)c4Cl)cc3)nc3[nH]ncc23)C1` (racemic), the half-inhibitory concentration (IC50) was 14 nM in experiment [1] and 45 nM in experiment [2].
On the same counts, the results for `O=C(NCCn1cnnc1)c1cc(-c2ccc(NS(=O)(=O)c3cccc(Cl)c3Cl)cc2)nc2[nH]ncc12` are 3 nM and 609 nM.
The matching figures for `CC(C)N1CC[C@H](NC(=O)c2cc(-c3ccc(NS(=O)(=O)c4cccc(Cl)c4Cl)cc3)nc3[nH]ncc23)C1`: 4 nM and 38 nM.
On the same counts, the results for `CCOc1nc(-c2ccc(NS(=O)(=O)c3cc(Cl)ccc3F)cc2)nc2[nH]nc(C)c12` are 23 nM and 183 nM.
For `O=C(NCc1cocn1)c1cc(-c2ccc(NS(=O)(=O)c3cccc(Cl)c3Cl)cc2)nc2[nH]ncc12`, the half-inhibitory concentration (IC50) in experiment [1] was less than 1 nM; in experiment [2] it was 327 nM.
On the same counts, the results for `O=C(c1cc(-c2ccc(NS(=O)(=O)c3cccc(Cl)c3Cl)cc2)nc2[nH]ncc12)N1CCNCC1` are 2 nM and 1280 nM.
On the same counts, the results for `Cc1n[nH]c2nc(-c3ccc(NS(=O)(=O)c4cc(Cl)ccc4F)cc3)nc(OC3CCCNC3)c12` (stereo unspecified) are 1 nM and 1 nM.
For `O=C(NCc1cc[nH]n1)c1cc(-c2ccc(NS(=O)(=O)c3cccc(Cl)c3Cl)cc2)nc2[nH]ncc12`, in experiment [2], the IC50 came out at 963 nM.
In the case of `CNC(=O)c1cc(-c2ccc(NS(=O)(=O)c3cccc(Cl)c3Cl)cc2)nc2[nH]ncc12`, the values for the half-maximal inhibitory concentration (IC50) in experiment [1] and in experiment [2] were 4 nM and 929 nM, respectively.
Turning to `CN1CC(NC(=O)c2cc(-c3ccc(NS(=O)(=O)c4cccc(Cl)c4Cl)cc3)nc3[nH]ncc23)C1`, the half-maximal inhibitory concentration (IC50) in experiment [1] and in experiment [2] was less than 1 nM throughout.
For `NC(=O)c1cc(-c2ccc(NS(=O)(=O)c3cccc(Cl)c3Cl)cc2)nc2[nH]ncc12`, the IC50 in experiment [1] was 1 nM; in experiment [2], 236 nM.
The matching figures for `Cc1n[nH]c2nc(-c3ccc(NS(=O)(=O)c4cc(Cl)ccc4F)cc3)nc(OCC(F)(F)CN)c12`: 3 nM and 5 nM.
In the case of `Cc1n[nH]c2nc(-c3ccc(NS(=O)(=O)c4cc(Cl)ccc4F)cc3)nc(OC3CCNCC3)c12`, the IC50 in experiment [1] and in experiment [2] was 1 nM each time.
For `O=C(NCc1ncn[nH]1)c1cc(-c2ccc(NS(=O)(=O)c3cccc(Cl)c3Cl)cc2)nc2[nH]ncc12`, the IC50 turned out to be 1 nM in experiment [1] and 107 nM in experiment [2].
On the same counts, the results for `Cc1n[nH]c2nc(-c3ccc(NS(=O)(=O)c4cc(Cl)ccc4F)cc3)nc(OC3CCC(=O)CC3)c12` are 5 nM and 18 nM.
The matching figures for `Cc1n[nH]c2nc(-c3ccc(NS(=O)(=O)c4cc(Cl)ccc4F)cc3)nc(OCCCO)c12`: 2 nM and 10 nM.
